In patent US10301306B2, “Substituted dihydro-1H-pyrrolo[3,2-c]pyridin-4(5H)-ones as RIPK3 inhibitors” (BRISTOL-MYERS SQUIBB COMPANY, priority 2014, dated 2019):

target: RIPK3 (Homo sapiens (Human), UniProt Q9Y572); experiment: RIPK3 HTRF Kinase Assay; format: binding; details: RIPK3 1 nM; HTRF probe 23 nM; 60 min at room temperature; read-out: IC50 for Inhibition of RIPK3
Sequence (Q9Y572 whole entry, species assumed): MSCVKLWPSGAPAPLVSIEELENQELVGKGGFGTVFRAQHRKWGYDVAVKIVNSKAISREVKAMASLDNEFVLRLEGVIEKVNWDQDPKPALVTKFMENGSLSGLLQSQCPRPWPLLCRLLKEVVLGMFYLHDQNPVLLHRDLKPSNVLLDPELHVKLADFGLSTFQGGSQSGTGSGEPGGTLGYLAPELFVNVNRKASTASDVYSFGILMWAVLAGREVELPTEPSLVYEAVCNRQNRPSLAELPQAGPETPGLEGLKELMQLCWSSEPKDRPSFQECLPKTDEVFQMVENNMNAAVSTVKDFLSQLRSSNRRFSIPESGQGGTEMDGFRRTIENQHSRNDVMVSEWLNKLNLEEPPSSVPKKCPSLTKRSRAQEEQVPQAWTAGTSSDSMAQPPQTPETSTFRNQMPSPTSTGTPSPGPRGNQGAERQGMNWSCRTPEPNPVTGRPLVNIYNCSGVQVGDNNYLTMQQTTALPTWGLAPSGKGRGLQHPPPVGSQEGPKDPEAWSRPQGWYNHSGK

| SMILES | IC50 |
| --- | --- |
| N#Cc1cc(F)ccc1Cn1c2c(c(-c3ccoc3)c1-c1ccncc1)C(=O)NCC2 [Example 141] | < 30 nM |
| N#Cc1cc(F)ccc1Cn1c2c(c(-c3ccc(Cl)c(Cl)c3)c1-c1ccncc1)C(=O)NCC2 [Example 136] | < 30 nM |
| O=C1NCCc2c1c(-c1ccc(F)cc1)c(-c1ccnc(NC(=O)C3CC3)c1)n2Cc1ccc(C(F)(F)F)cc1F [Example 8, N-(4-(1-(2-Fluoro-4-(trifluoromethyl)benzyl)-3-(4-fluorophenyl)-4-oxo-4,5,6,7-tetrahydro-1H-pyrrolo[3,2-c]pyridin-2-yl)pyridin-2-yl)cyclopropanecarboxamide] | < 30 nM |
| CS(=O)(=O)c1ccc(Cn2c3c(c(-c4ccc(F)cc4)c2-c2ccncc2)C(=O)NCC3)cc1 [Example 42] | 100 to 15000 nM |
| N#Cc1cc(F)ccc1Cn1c2c(c(-c3cccc(S(N)(=O)=O)c3)c1-c1ccncc1)C(=O)NCC2 [Example 133] | 100 to 15000 nM |
| N#Cc1cc(F)ccc1Cn1c2c(c(-c3cncc4ccccc34)c1-c1ccncc1)C(=O)NCC2 [Example 132] | 100 to 15000 nM |
| O=C1NCCc2c1c(-c1ccc(F)cc1)c(-c1ccncc1)n2CC1CCCC1 [Example 78] | < 30 nM |
| CC(=O)Nc1cc(-c2c(-c3ccc(F)cc3)c3c(n2Cc2ccc(C)cc2)CCNC3=O)ccn1 [Example 4, N-(4-(3-(4-Fluorophenyl)-1-(4-methylbenzyl)-4-oxo-4,5,6,7-tetrahydro-1H-pyrrolo[3,2-c]pyridin-2-yl)pyridin-2-yl)acetamide] | < 30 nM |
| N#Cc1cc(F)ccc1Cn1c2c(c(-c3cccnc3)c1-c1ccnc(Cl)c1)C(=O)NCC2 [Example 11, 2-((2-(2-Chloropyridin-4-yl)-4-oxo-3-(pyridin-3-yl)-4,5,6,7-tetrahydro-1H-pyrrolo[3,2-c]pyridin-1-yl)methyl)-5-fluorobenzonitrile] | 100 to 15000 nM |
| Cn1cc(-c2c(-c3ccc(F)cc3)c3c(n2Cc2ccc(F)cc2C#N)CCNC3=O)cn1 [Example 24] | 100 to 15000 nM |
| COc1ccc(-c2c3c(n(CC4CCOCC4)c2-c2ccncc2)CCNC3=O)cn1 [Example 107] | 100 to 15000 nM |
| O=C1NCCc2c1c(-c1ccc(F)cc1)c(-c1ccncc1)n2Cc1ccc(C(F)(F)F)cc1F [Example 43] | < 30 nM |
| Cc1cc(Cn2c3c(c(-c4ccc(F)cc4)c2-c2ccncc2)C(=O)NCC3)no1 [Example 79] | 31 to 100 nM |
| Cc1cc(Cn2c3c(c(-c4cccc(NC(=O)OC(C)(C)C)c4)c2-c2ccncc2)C(=O)NCC3)n(C)n1 [Example 171] | 31 to 100 nM |
| O=C(Nc1cc(-c2c(-c3ccc(F)cc3)c3c(n2CC2CCOCC2)CCNC3=O)ccn1)c1ccncc1 [Example 85] | 100 to 15000 nM |
| CCCC(=O)Nc1cccc(-c2c3c(n(Cc4ccc(Cl)cc4F)c2-c2ccncc2)CCNC3=O)c1 [Example 170] | 100 to 15000 nM |
| O=C1NCCc2c1c(-c1cccc(-c3ccccc3)c1)c(-c1ccncc1)n2CC1CCOCC1 [Example 5, 3-([1,1′-Biphenyl]-3-yl)-2-(pyridin-4-yl)-1-((tetrahydro-2H-pyran-4-yl)methyl)-6,7-dihydro-1H-pyrrolo[3,2-c]pyridin-4(5H)-one] | 100 to 15000 nM |
| Cn1c(-c2ccncc2)c(-c2ccc(F)cc2)c2c1C(C)(C)CNC2=O [Example 154, 3-(4-Fluorophenyl)-1,7,7-trimethyl-2-(pyridin-4-yl)-6,7-dihydro-1H-pyrrolo[3,2-c]pyridin-4(5H)-one] | 100 to 15000 nM |
| O=C1NCCc2c1c(-c1cnc3ccccc3c1)c(-c1ccncc1)n2CC1CCOCC1 [Example 111] | 100 to 15000 nM |
| CC(=O)Nc1cccc(-c2c(-c3ccc(F)cc3)c3c(n2Cc2ccc(F)cc2C#N)CCNC3=O)c1 [Example 21] | 100 to 15000 nM |

| SMILES | IC50 |
| --- | --- |
| CCC(=O)Nc1cc(-c2c(-c3ccc(F)cc3)c3c(n2Cc2ccc(C(F)(F)F)cc2F)CCNC3=O)ccn1 [Example 149] | 31 to 100 nM |
| Cc1cc(Cn2c3c(c(-c4cccc(NC(=O)OC(C)(C)C)c4)c2-c2ccnc(NC(=O)C4CC4)c2)C(=O)NCC3)n(C)n1 [Example 185, tert-Butyl (3-(2-(2-(cyclopropanecarboxamido)pyridin-4-yl)-1-((1,3-dimethyl-1H-pyrazol-5-yl)methyl)-4-oxo-4,5,6,7-tetrahydro-1H-pyrrolo[3,2-c]pyridin-3-yl)phenyl)carbamate] | 100 to 15000 nM |
| Cc1ccc(S(=O)(=O)n2c3c(c(-c4ccc(F)cc4)c2-c2ccncc2)C(=O)NCC3)cc1 [Example 162, 3-(4-Fluorophenyl)-2-(pyridin-4-yl)-1-tosyl-6,7-dihydro-1H-pyrrolo[3,2-c]pyridin-4(5H)-one] | 100 to 15000 nM |
| CC(=O)Nc1cc(-c2c(-c3ccc(F)cc3)c3c(n2Cc2ccc(C(F)(F)F)cc2F)CCNC3=O)ccn1 [Example 101] | < 30 nM |
| Cc1cc(Cn2c3c(c(-c4cccc(NC=O)c4)c2-c2ccncc2)C(=O)NCC3)n(C)n1 [Example 178] | 100 to 15000 nM |
| CS(=O)(=O)c1cccc(-c2c3c(n(Cc4ccc(F)cc4C#N)c2-c2ccncc2)CCNC3=O)c1 [Example 126] | 100 to 15000 nM |
| COc1ccc(-c2c3c(n(CC4CCOCC4)c2-c2ccncc2)CCNC3=O)cc1 [Example 104] | 100 to 15000 nM |
| CC(C)CC(=O)Nc1cc(-c2c(-c3ccc(F)cc3)c3c(n2CC2CCOCC2)CCNC3=O)ccn1 [Example 93] | 100 to 15000 nM |
| COCCNc1cc(-c2c(-c3ccc(F)cc3)c3c(n2Cc2ccc(C(F)(F)F)cc2F)CCNC3=O)ccn1 [Example 147] | 100 to 15000 nM |
| O=C1NCCc2c1c(-c1ccc(F)cc1)c(-c1ccnc(NC(=O)C3CC3)c1)n2CC1CCOCC1 [Example 87] | 31 to 100 nM |
| O=C1NCCc2c1c(-c1ccc(F)cc1)c(-c1ccncc1)n2Cc1c(F)cccc1C(F)(F)F [Example 73] | < 30 nM |
| CCC(=O)Nc1cc(-c2c(-c3ccc(F)cc3)c3c(=O)[nH]ccc3n2Cc2ccc(C(F)(F)F)cc2F)ccn1 [Example 156, N-(4-(1-(2-Fluoro-4-(trifluoromethyl)benzyl)-3-(4-fluorophenyl)-4-oxo-4,5-dihydro-1H-pyrrolo[3,2-c]pyridin-2-yl)pyridin-2-yl)propionamide] | < 30 nM |
| N#Cc1cc(F)ccc1Cn1c2c(c(-c3cccc(OC(F)(F)F)c3)c1-c1ccncc1)C(=O)NCC2 [Example 114] | 31 to 100 nM |
| O=C1NCCc2c1c(-c1ccc(F)cc1)c(-c1ccncc1)n2Cc1nnc(C2CC2)s1 [Example 47] | 100 to 15000 nM |
| CC(=O)Nc1cc(-c2c(-c3ccc(F)cc3)c3c(n2Cc2ccc(F)c(C#N)c2)CCNC3=O)ccn1 [Example 99] | 31 to 100 nM |
| O=C1NCCc2c1c(-c1ccc(F)cc1)c(-c1ccncc1)n2Cc1ccc(C(F)(F)F)cc1C(F)(F)F [Example 53] | < 30 nM |
| N#CCCCn1c2c(c(-c3ccc(F)cc3)c1-c1ccncc1)C(=O)NCC2 [Example 59] | 100 to 15000 nM |
| COCC(=O)Nc1cc(-c2c(-c3ccc(F)cc3)c3c(n2Cc2ccc(C(F)(F)F)cc2F)CCNC3=O)ccn1 [Example 150] | 31 to 100 nM |
| CN(C)c1cccc(-c2c3c(n(CC4CCOCC4)c2-c2ccncc2)CCNC3=O)c1 [Example 109] | 100 to 15000 nM |
| COc1ccc(-c2c3c(n(Cc4ccc(F)cc4C#N)c2-c2ccncc2)CCNC3=O)cc1 [Example 121] | 31 to 100 nM |

| SMILES | IC50 |
| --- | --- |
| N#Cc1cc(F)ccc1Cn1c2c(c(-c3cc(Cl)cc(Cl)c3)c1-c1ccncc1)C(=O)NCC2 [Example 138] | < 30 nM |
| COc1ccc(-c2c3c(n(Cc4ccc(F)cc4C#N)c2-c2ccncc2)CCNC3=O)cn1 [Example 124] | < 30 nM |
| Cc1cc(Cn2c3c(c(-c4cccc(N)c4)c2-c2ccncc2)C(=O)NCC3)n(C)n1 [Example 174] | 100 to 15000 nM |
| Cc1cc(Cn2c3c(c(-c4ccc(F)cc4)c2-c2cn[nH]c2)C(=O)NCC3)n(C)n1 [Example 184] | 100 to 15000 nM |
| O=c1[nH]ccc2c1c(-c1ccc(F)cc1)c(-c1ccnc(Cl)c1)n2Cc1ccc(C(F)(F)F)cc1F [Example 155, 2-(2-Chloropyridin-4-yl)-1-(2-fluoro-4-(trifluoromethyl)benzyl)-3-(4-fluorophenyl)-1H-pyrrolo[3,2-c]pyridin-4(5H)-one] | 100 to 15000 nM |
| N#Cc1cc(F)ccc1Cn1c2c(c(-c3cccc(C(F)(F)F)c3)c1-c1ccncc1)C(=O)NCC2 [Example 123] | < 30 nM |
| N#Cc1ccc(Cn2c3c(c(-c4ccc(F)cc4)c2-c2ccncc2)C(=O)NCC3)c(F)c1 [Example 51] | < 30 nM |
| N#Cc1cc(F)ccc1Cn1c2c(c(-c3ccc(F)cc3)c1-c1ccncc1)C(=O)NCC2 [Example 34] | < 30 nM |
| O=C1NCCc2c1c(-c1ccc(F)cc1)c(-c1ccncc1)n2Cc1ccc(F)cc1 [Example 44] | < 30 nM |
| Nc1cccc(-c2c3c(n(Cc4ccc(Cl)cc4F)c2-c2ccncc2)CCNC3=O)c1 [Example 169] | 100 to 15000 nM |
| CC(C)(C)CCn1c2c(c(-c3ccc(F)cc3)c1-c1ccncc1)C(=O)NCC2 [Example 75] | < 30 nM |
| CCC(=O)Nc1cccc(-c2c3c(n(Cc4cc(C)nn4C)c2-c2ccncc2)CCNC3=O)c1 [Example 179] | 100 to 15000 nM |
| N#Cc1cc(F)ccc1Cn1c2c(c(-c3ccc(OC(F)(F)F)cc3)c1-c1ccncc1)C(=O)NCC2 [Example 122] | 100 to 15000 nM |
| Cn1ccnc1Cn1c2c(c(-c3ccc(F)cc3)c1-c1ccncc1)C(=O)NCC2 [Example 80] | 100 to 15000 nM |
| N#Cc1cc(F)ccc1Cn1c2c(c(-c3ccc(F)cc3)c1-c1cncnc1)C(=O)NCC2 [Example 17] | 100 to 15000 nM |
| N#Cc1ccc(Cn2c3c(c(-c4ccc(F)cc4)c2-c2ccncc2)C(=O)NCC3)cc1 [Example 28] | 31 to 100 nM |
| CCC(=O)Nc1cc(-c2c(-c3ccc(F)cc3)c3c(n2CC2CCOCC2)CCNC3=O)ccn1 [Example 90] | 100 to 15000 nM |
| O=C1NCCc2c1c(-c1ccc(F)cc1)c(-c1ccncc1)n2Cc1ccc(F)cc1C(F)(F)F [Example 55] | < 30 nM |
| COc1ncc(-c2c(-c3ccc(F)cc3)c3c(n2Cc2ccc(F)cc2C#N)CCNC3=O)cn1 [Example 26] | 100 to 15000 nM |

same assay, conditions: read-out: IC50 for Inhibition of RIPK3

| SMILES | IC50 |
| --- | --- |
| N#Cc1cc(F)ccc1Cn1c2c(c(-c3ccc(F)cc3)c1-c1ccnc(F)c1)C(=O)NCC2 [Example 18] | 100 to 15000 nM |
| N#Cc1cc(F)ccc1Cn1c2c(c(-c3cccc(-c4ccccc4)c3)c1-c1ccncc1)C(=O)NCC2 [Example 120] | 100 to 15000 nM |
| O=C1NCCc2c1c(-c1cccnc1)c(-c1ccncc1)n2CC1CCOCC1 [Example 108] | 100 to 15000 nM |
